Where two headings read alike, the source gives them in different places. Positions of bridges follow the written chain, without caps; N, C: chain ends. Non-standard residues stand in square brackets, D forms with d. Residues, ends and D or L forms follow the SMILES beside them. Phe(4-I) = N[C@@H](Cc1ccc(I)cc1)C(=O)O; 1Nal = N[C@@H](Cc1cccc2ccccc12)C(=O)O
Columns and labels:
Experiment in all cases: cell-based
[1] = biological target: T1, hNav1.3 (Homo sapiens, UniProt Q9NY46); format: cell-based; conditions: for IC50: Nav1.3 Use IC50
[2] = biological target: T2, hNav1.7 (Homo sapiens, UniProt Q15858); format: cell-based
[3] = biological target: T2, hNav1.7
[4] = biological target: T3, hNav1.5 (Homo sapiens, UniProt Q14524)
[5] = biological target: T3, hNav1.5; conditions: IonWorks Quattro; clamped to −110 mV, depolarized to −10 mV, 5 min after compound; n=2; read-out: IWQ Use Nav1.5
[6] = biological target: T1, hNav1.3; conditions: IonWorks Quattro; clamped to −110 mV, depolarized to −10 mV, 5 min after compound; n=2; read-out: IWQ Use Nav1.3
[7] = IonWorks Quattro, clamped to −110 mV, depolarized to −10 mV, 5 min after compound, n=2, read-out: IWQ Use Nav1.7

T3 sequence (Q14524 whole entry, looked up): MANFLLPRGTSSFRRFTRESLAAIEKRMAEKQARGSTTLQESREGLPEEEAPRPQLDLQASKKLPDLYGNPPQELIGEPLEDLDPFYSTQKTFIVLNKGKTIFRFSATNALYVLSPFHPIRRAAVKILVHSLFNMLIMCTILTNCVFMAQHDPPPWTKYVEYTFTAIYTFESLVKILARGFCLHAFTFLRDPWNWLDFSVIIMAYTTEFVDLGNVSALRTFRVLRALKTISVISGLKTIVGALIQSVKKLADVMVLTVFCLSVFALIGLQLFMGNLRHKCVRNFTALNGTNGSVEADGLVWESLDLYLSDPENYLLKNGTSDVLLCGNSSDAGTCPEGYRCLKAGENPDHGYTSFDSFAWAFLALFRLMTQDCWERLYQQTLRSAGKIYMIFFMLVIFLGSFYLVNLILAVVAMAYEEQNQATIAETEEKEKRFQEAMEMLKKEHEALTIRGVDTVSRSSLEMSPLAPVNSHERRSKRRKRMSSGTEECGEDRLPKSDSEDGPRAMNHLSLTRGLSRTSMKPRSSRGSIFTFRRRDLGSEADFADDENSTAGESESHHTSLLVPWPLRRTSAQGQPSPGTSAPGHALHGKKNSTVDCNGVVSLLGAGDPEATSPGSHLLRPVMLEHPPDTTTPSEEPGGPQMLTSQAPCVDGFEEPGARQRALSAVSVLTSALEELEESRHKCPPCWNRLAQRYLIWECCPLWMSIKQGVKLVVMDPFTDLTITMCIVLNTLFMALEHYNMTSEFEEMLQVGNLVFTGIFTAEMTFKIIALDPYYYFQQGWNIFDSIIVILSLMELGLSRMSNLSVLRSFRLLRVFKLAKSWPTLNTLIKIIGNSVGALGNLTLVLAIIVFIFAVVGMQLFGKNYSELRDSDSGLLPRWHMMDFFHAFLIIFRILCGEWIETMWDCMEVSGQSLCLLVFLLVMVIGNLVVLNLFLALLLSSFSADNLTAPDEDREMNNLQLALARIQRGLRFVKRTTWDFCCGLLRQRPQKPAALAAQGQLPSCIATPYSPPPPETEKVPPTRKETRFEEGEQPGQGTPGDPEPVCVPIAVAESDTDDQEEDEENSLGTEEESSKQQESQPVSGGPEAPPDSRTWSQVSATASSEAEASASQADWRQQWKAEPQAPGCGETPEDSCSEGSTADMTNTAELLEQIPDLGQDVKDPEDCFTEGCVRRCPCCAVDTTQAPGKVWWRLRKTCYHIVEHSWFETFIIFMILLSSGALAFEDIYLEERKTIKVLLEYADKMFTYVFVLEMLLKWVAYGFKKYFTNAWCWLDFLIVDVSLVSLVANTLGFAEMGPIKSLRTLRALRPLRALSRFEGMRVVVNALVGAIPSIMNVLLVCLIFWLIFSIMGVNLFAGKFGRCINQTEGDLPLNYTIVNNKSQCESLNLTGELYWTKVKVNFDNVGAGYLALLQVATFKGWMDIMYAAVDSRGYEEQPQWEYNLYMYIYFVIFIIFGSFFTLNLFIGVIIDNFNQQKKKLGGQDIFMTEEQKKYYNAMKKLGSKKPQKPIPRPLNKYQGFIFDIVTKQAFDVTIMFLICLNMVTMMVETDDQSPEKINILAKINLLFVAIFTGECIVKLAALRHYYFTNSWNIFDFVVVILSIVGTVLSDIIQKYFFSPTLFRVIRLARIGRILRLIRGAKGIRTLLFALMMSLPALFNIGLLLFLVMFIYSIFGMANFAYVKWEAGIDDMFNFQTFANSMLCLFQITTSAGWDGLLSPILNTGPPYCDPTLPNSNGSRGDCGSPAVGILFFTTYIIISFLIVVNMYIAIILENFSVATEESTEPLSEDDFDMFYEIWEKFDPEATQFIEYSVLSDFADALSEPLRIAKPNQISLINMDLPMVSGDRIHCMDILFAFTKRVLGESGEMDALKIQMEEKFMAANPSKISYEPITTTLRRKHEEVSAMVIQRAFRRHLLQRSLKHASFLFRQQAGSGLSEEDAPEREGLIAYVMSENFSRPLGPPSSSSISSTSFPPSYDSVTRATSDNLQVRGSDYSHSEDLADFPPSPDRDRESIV
T1 sequence (Q9NY46 whole entry, looked up): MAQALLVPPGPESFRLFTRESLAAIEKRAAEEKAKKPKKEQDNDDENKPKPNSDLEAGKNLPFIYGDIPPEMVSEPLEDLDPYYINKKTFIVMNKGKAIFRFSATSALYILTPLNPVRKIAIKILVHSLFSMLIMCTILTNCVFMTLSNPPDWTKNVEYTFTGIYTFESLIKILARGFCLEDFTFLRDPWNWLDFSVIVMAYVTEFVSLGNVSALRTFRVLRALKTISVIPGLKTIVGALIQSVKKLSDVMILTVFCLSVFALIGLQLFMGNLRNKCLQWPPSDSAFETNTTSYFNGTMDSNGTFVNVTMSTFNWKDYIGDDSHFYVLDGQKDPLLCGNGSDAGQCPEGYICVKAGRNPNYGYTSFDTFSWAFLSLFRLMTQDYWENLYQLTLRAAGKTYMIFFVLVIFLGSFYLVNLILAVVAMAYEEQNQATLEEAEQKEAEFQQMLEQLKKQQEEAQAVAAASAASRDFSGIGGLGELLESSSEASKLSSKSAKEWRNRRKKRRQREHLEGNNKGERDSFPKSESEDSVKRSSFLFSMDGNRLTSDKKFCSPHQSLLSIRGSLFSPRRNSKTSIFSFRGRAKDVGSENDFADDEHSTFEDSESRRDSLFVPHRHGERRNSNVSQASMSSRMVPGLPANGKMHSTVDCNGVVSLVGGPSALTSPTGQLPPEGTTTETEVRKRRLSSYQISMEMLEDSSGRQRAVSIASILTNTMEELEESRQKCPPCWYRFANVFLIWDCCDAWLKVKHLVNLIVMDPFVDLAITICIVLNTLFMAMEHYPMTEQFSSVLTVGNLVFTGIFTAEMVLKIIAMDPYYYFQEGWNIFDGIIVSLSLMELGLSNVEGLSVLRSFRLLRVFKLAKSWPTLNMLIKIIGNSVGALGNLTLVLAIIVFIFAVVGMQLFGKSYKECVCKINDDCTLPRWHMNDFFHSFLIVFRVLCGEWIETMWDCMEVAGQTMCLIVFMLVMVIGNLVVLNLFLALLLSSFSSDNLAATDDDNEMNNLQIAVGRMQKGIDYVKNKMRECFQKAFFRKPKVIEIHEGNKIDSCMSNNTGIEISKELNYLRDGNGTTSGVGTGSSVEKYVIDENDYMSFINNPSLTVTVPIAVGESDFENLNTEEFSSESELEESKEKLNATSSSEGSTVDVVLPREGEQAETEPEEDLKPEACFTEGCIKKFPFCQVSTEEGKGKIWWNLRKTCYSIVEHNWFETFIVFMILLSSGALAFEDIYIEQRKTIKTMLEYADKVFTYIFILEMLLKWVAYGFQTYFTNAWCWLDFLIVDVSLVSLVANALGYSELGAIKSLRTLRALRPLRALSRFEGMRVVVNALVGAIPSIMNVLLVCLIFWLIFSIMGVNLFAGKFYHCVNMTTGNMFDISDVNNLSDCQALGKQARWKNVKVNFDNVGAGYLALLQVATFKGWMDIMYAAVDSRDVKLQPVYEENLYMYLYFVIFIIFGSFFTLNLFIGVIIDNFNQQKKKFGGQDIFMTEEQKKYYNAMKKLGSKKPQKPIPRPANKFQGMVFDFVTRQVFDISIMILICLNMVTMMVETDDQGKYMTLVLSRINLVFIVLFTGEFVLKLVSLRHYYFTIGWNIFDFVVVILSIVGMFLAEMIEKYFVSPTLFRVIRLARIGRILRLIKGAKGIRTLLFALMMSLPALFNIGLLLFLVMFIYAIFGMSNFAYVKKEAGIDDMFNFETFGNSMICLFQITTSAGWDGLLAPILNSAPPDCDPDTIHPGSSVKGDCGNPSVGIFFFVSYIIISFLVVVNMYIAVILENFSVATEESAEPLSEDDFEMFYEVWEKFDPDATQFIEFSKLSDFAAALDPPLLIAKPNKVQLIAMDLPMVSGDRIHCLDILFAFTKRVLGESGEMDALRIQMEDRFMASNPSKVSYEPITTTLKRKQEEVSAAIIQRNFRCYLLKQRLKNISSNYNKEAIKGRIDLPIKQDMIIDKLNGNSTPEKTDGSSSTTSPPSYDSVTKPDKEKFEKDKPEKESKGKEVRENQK

SMILES	IC50 [1] [nM]	IC50 [2] [nM]	IC50 ([3]; Nav1.7 Use IC50) [nM]	IC50 [4] [nM]	IC50 [5] [nM]	IC50 [6] [nM]	IC50 [2, 7] [nM]	IC50 ([3]; read-out: Nav1.7 Use IC50) [nM]	potency against NaV1.3, in words [1]	IC50 ([4]; read-out: Nav1.5 Use IC50) [nM]
CC[C@H](C)[C@@H]1NC(=O)[C@@H]2CSSC[C@@H]3NC(=O)[C@H](C(C)C)NC(=O)[C@H](CC(C)C)NC(=O)[C@H](CC(N)=O)NC(=O)[C@@H]4CCCN4C(=O)[C@H](CCCNC(=N)N)NC(=O)[C@H](CSSC[C@H](NC(=O)[C@@H](N)Cc4cccc5ccccc45)C(=O)N[C@@H](CC(C)C)C(=O)NCC(=O)N[C@@H](Cc4ccccc4)C(=O)N[C@@H](CCSC)C(=O)N[C@@H](CCCNC(=N)N)C(=O)N[C@@H](CCCCN)C(=O)N2)NC(=O)[C@H](CSSC[C@@H](C(=O)N[C@@H](CCCCN)C(=O)N[C@@H](Cc2ccc(O)cc2)C(=O)N[C@H](C(=O)N[C@@H](Cc2ccccc2)C(N)=O)C(C)C)NC(=O)[C@H](Cc2c[nH]c4ccccc24)NC(=O)[C@H](CCCCN)NC(=O)[C@H](Cc2c[nH]cn2)NC(=O)[C@H]([C@@H](C)O)NC(=O)[C@H](CCCNC(=N)N)NC(=O)[C@H](CO)NC3=O)NC(=O)[C@H](CCCCN)NC(=O)[C@H](CC(=O)O)NC(=O)[C@H](CC(N)=O)NC(=O)[C@H](CC(=O)O)NC(=O)[C@@H]2CCCN2C1=O [SEQ ID NO: 77] (H-[1Nal]CLGFMRKCIPDNDKCCRPNLVCSRTHKWCKYVF-NH2; disulfide 2-17, 9-23, 16-30)	66	110	23	7600	13400	140	–	–	–	–
CC[C@H](C)[C@@H]1NC(=O)[C@@H]2CSSC[C@@H]3NC(=O)[C@H](C(C)C)NC(=O)[C@H](CC(C)C)NC(=O)[C@H](CC(N)=O)NC(=O)[C@@H]4CCCN4C(=O)[C@H](CCCNC(=N)N)NC(=O)[C@H](CSSC[C@H](NC(=O)[C@@H](N)CC(=O)O)C(=O)N[C@@H](CC(C)C)C(=O)NCC(=O)N[C@@H](Cc4ccccc4)C(=O)N[C@@H](Cc4ccccc4)C(=O)N[C@@H](CCCNC(=N)N)C(=O)N[C@@H](CCCCN)C(=O)N2)NC(=O)[C@H](CSSC[C@@H](C(=O)N[C@@H](CCCCN)C(=O)N[C@@H](Cc2ccc(O)cc2)C(=O)N[C@H](C(=O)N[C@@H](Cc2ccccc2)C(N)=O)C(C)C)NC(=O)[C@H](Cc2c[nH]c4ccccc24)NC(=O)[C@H](CCCCN)NC(=O)[C@H](Cc2cnc[nH]2)NC(=O)[C@H]([C@@H](C)O)NC(=O)[C@H](CCCNC(=N)N)NC(=O)[C@H](CO)NC3=O)NC(=O)[C@H](CCCCN)NC(=O)[C@H](CC(=O)O)NC(=O)[C@H](CC(N)=O)NC(=O)[C@H](CC(=O)O)NC(=O)[C@@H]2CCCN2C1=O [SEQ ID NO: 89] (H-DCLGFFRKCIPDNDKCCRPNLVCSRTHKWCKYVF-NH2; disulfide 2-17, 9-23, 16-30)	16	50	15	3160	9210	30	–	–	–	–
CCCC[C@@H]1NC(=O)[C@H](Cc2ccccc2)NC(=O)CNC(=O)[C@H](CC(C)C)NC(=O)[C@@H](NC(=O)[C@@H](N)CC(=O)O)CSSC[C@@H]2NC(=O)[C@@H]3CSSC[C@@H](C(=O)N[C@@H](CCCCN)C(=O)N[C@@H](Cc4ccc(O)cc4)C(=O)N[C@H](C(=O)N[C@@H](Cc4ccccc4)C(N)=O)C(C)C)NC(=O)[C@H](Cc4c[nH]c5ccccc45)NC(=O)[C@H](CCCCN)NC(=O)[C@H](Cc4c[nH]cn4)NC(=O)[C@H]([C@@H](C)O)NC(=O)[C@H](CCCNC(=N)N)NC(=O)[C@H](CO)NC(=O)[C@H](CSSC[C@H](NC(=O)[C@H](CCCCN)NC(=O)[C@H](CCCNC(=N)N)NC1=O)C(=O)N[C@@H]([C@@H](C)CC)C(=O)N1CCC[C@H]1C(=O)N[C@@H](CC(=O)O)C(=O)N[C@@H](CC(N)=O)C(=O)N[C@@H](CC(=O)O)C(=O)N[C@@H](CCCCN)C(=O)N3)NC(=O)[C@H](C(C)C)NC(=O)[C@H](CC(C)C)NC(=O)[C@H](CC(N)=O)NC(=O)[C@@H]1CCCN1C(=O)[C@H](CCCNC(=N)N)NC2=O [SEQ ID NO: 123]	9	–	–	1150	4500	20	50	8	–	–
CC[C@H](C)[C@@H]1NC(=O)[C@@H]2CSSC[C@@H]3NC(=O)[C@H](C(C)C)NC(=O)[C@H](CC(C)C)NC(=O)[C@H](CC(N)=O)NC(=O)[C@@H]4CCCN4C(=O)[C@H](CCCNC(=N)N)NC(=O)[C@H](CSSC[C@H](NC(=O)[C@@H](N)CC(=O)O)C(=O)N[C@@H](CC(C)C)C(=O)NCC(=O)N[C@@H](Cc4ccc(-c5ccccc5)cc4)C(=O)N[C@@H](CCSC)C(=O)N[C@@H](CCCNC(=N)N)C(=O)N[C@@H](CCCCN)C(=O)N2)NC(=O)[C@H](CSSC[C@@H](C(=O)N[C@@H](CCCCN)C(=O)N[C@@H](Cc2ccc(O)cc2)C(=O)N[C@H](C(=O)N[C@@H](Cc2ccccc2)C(N)=O)C(C)C)NC(=O)[C@H](Cc2c[nH]c4ccccc24)NC(=O)[C@H](CCCCN)NC(=O)[C@H](Cc2c[nH]cn2)NC(=O)[C@H]([C@@H](C)O)NC(=O)[C@H](CCCNC(=N)N)NC(=O)[C@H](CO)NC3=O)NC(=O)[C@H](CCCCN)NC(=O)[C@H](CC(=O)O)NC(=O)[C@H](CC(N)=O)NC(=O)[C@H](CC(=O)O)NC(=O)[C@@H]2CCCN2C1=O [SEQ ID NO: 242]	3	–	62	–	3380	–	60	–	increased potency	2080
CC[C@H](C)[C@@H]1NC(=O)[C@@H]2CSSC[C@@H]3NC(=O)[C@H](C(C)C)NC(=O)[C@H](CC(C)C)NC(=O)[C@H](CC(N)=O)NC(=O)[C@@H]4CCCN4C(=O)[C@H](CCCNC(=N)N)NC(=O)[C@H](CSSC[C@H](NC(=O)[C@@H](N)CC(=O)O)C(=O)N[C@@H](CC(C)C)C(=O)NCC(=O)N[C@@H](Cc4ccccc4)C(=O)N[C@@H](CC4CCCCC4)C(=O)N[C@@H](CCCNC(=N)N)C(=O)N[C@@H](CCCCN)C(=O)N2)NC(=O)[C@H](CSSC[C@@H](C(=O)N[C@@H](CCCCN)C(=O)N[C@@H](Cc2ccc(O)cc2)C(=O)N[C@H](C(=O)N[C@@H](Cc2ccccc2)C(N)=O)C(C)C)NC(=O)[C@H](Cc2c[nH]c4ccccc24)NC(=O)[C@H](CCCCN)NC(=O)[C@H](Cc2cnc[nH]2)NC(=O)[C@H]([C@@H](C)O)NC(=O)[C@H](CCCNC(=N)N)NC(=O)[C@H](CO)NC3=O)NC(=O)[C@H](CCCCN)NC(=O)[C@H](CC(=O)O)NC(=O)[C@H](CC(N)=O)NC(=O)[C@H](CC(=O)O)NC(=O)[C@@H]2CCCN2C1=O [SEQ ID NO: 245]	2	–	3	2680	2370	–	20	–	–	–
CC[C@H](C)[C@@H]1NC(=O)[C@@H]2CSSC[C@@H]3NC(=O)[C@H](C(C)C)NC(=O)[C@H](CC(C)C)NC(=O)[C@H](CC(N)=O)NC(=O)[C@@H]4CCCN4C(=O)[C@H](Cc4c[nH]c5ccccc45)NC(=O)[C@H](CSSC[C@H](NC(=O)[C@@H](N)CC(=O)O)C(=O)N[C@@H](CC(C)C)C(=O)NCC(=O)N[C@@H](Cc4ccccc4)C(=O)N[C@@H](CCSC)C(=O)N[C@@H](CCCNC(=N)N)C(=O)N[C@@H](CCCCN)C(=O)N2)NC(=O)[C@H](CSSC[C@@H](C(=O)N[C@@H](CCCCN)C(=O)N[C@@H](Cc2ccc(O)cc2)C(=O)N[C@H](C(=O)N[C@@H](Cc2ccccc2)C(N)=O)C(C)C)NC(=O)[C@H](Cc2c[nH]c4ccccc24)NC(=O)[C@H](CCCCN)NC(=O)[C@H](Cc2c[nH]cn2)NC(=O)[C@H]([C@@H](C)O)NC(=O)[C@H](CCCNC(=N)N)NC(=O)[C@H](CO)NC3=O)NC(=O)[C@H](CCCCN)NC(=O)[C@H](CC(=O)O)NC(=O)[C@H](CC(N)=O)NC(=O)[C@H](CC(=O)O)NC(=O)[C@@H]2CCCN2C1=O [[Trp18]GpTx-1(1-34)] (H-DCLGFMRKCIPDNDKCCWPNLVCSRTHKWCKYVF-NH2; disulfide 2-17, 9-23, 16-30)	42	–	24	> 10000	–	–	–	–	–	–
CC[C@H](C)[C@@H]1NC(=O)[C@@H]2CSSC[C@@H]3NC(=O)[C@H](C(C)C)NC(=O)[C@H](CC(C)C)NC(=O)[C@H](CC(N)=O)NC(=O)[C@@H]4CCCN4C(=O)[C@H](CCCNC(=N)N)NC(=O)[C@H](CSSC[C@H](NC(=O)[C@@H](N)CC(=O)O)C(=O)N[C@@H](CC(C)C)C(=O)NCC(=O)N[C@@H](Cc4ccccc4)C(=O)N[C@@H](CCSC)C(=O)N[C@@H](CCCNC(=N)N)C(=O)N[C@@H](CCCCN)C(=O)N2)NC(=O)[C@H](CSSC[C@@H](C(=O)N[C@@H](CCCCN)C(=O)N[C@@H](Cc2ccc(O)cc2)C(=O)N[C@@H](Cc2ccc(I)cc2)C(=O)N[C@@H](Cc2ccccc2)C(N)=O)NC(=O)[C@H](Cc2c[nH]c4ccccc24)NC(=O)[C@H](CCCCN)NC(=O)[C@H](Cc2c[nH]cn2)NC(=O)[C@H]([C@@H](C)O)NC(=O)[C@H](CCCNC(=N)N)NC(=O)[C@H](CO)NC3=O)NC(=O)[C@H](CCCCN)NC(=O)[C@H](CC(=O)O)NC(=O)[C@H](CC(N)=O)NC(=O)[C@H](CC(=O)O)NC(=O)[C@@H]2CCCN2C1=O [[pI-Phe33]GpTx-1(1-34)] (H-DCLGFMRKCIPDNDKCCRPNLVCSRTHKWCKY[Phe(4-I)]F-NH2; disulfide 2-17, 9-23, 16-30)	35	–	26	10400	–	–	–	–	–	–
